Results published in ChEMBL document CHEMBL2439983, “The discovery and optimization of novel dual inhibitors of topoisomerase II and histone deacetylase” (Bioorg Med Chem, 2013).
Calls of active or inactive are those of the source. The calls are words filed in the database; no cut-off is given here.

Tests used:
HCT-116 = test: cells; conditions: Homo sapiens, HCT-116, 72 h
Description: Antiproliferative activity against human HCT116 cells assessed as cell viability after 72 hrs by MTT assay

Histone deacetylase 1 = Histone deacetylase 1 (Homo sapiens, UniProt Q13547); test: Inhibition of human recombinant HDAC1 expressed in baculovirus infected insect high5 cells using Ac-Lys-Tyr-Lys (epsilon-acetyl)-AMC as substrate after 3 to 24 hrs by fluorescence assay
[1] = biological target: T1, Protein deacetylase HDAC6 (Homo sapiens, UniProt Q9UBN7); test: Inhibition of human recombinant HDAC6 expressed in baculovirus infected insect high5 cells using Boc-Lys (epsilon-acetyl)-AM) as substrate after 3 to 24 hrs by fluorescence assay
T1 sequence (Q9UBN7 whole entry): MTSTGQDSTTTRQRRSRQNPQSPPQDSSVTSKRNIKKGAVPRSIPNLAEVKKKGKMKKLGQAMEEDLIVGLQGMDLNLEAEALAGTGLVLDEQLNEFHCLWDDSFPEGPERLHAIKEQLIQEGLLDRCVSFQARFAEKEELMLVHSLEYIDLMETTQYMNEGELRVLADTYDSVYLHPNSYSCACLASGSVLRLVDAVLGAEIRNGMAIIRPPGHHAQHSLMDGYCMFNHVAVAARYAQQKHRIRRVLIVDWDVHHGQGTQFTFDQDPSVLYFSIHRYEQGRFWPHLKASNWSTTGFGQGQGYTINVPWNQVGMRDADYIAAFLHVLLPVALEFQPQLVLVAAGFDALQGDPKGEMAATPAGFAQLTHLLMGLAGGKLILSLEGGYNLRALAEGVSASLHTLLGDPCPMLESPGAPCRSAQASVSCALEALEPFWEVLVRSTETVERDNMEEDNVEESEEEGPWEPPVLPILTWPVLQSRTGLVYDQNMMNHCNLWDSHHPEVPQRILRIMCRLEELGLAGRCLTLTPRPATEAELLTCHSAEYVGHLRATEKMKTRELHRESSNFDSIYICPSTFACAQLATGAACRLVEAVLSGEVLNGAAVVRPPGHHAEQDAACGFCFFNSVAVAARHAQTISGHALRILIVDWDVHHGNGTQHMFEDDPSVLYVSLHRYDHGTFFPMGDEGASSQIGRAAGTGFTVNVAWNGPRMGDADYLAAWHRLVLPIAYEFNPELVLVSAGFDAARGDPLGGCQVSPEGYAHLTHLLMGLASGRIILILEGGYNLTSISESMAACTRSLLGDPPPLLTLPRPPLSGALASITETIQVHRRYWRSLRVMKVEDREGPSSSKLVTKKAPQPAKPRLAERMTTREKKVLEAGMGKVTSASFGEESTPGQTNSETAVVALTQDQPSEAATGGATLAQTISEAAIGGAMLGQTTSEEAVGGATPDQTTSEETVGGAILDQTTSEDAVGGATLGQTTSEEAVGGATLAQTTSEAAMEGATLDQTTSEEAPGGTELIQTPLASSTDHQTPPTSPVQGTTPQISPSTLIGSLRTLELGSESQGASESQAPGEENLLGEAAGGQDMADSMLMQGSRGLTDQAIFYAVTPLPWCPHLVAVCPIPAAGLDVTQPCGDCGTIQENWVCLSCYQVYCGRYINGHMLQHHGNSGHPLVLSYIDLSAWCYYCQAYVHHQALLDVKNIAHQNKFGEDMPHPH

[2] = biological target: DNA topoisomerase 2-alpha (Homo sapiens) (UniProt P11388); test: Inhibition of Topoisomerase 2 (unknown origin) assessed as impairment of pBR322 DNA decatenation at 100 uM after 30 mins by agarose gel electrophoresis
Histone deacetylase 3 = Histone deacetylase 3 (Homo sapiens, UniProt O15379); test: Inhibition of human recombinant HDAC3 expressed in baculovirus infected insect high5 cells using Ac-Lys-Tyr-Lys (epsilon-acetyl)-AMC as substrate after 3 to 24 hrs by fluorescence assay
Histone deacetylase 2 = Histone deacetylase 2 (Homo sapiens, UniProt Q92769); test: Inhibition of HDAC2 (unknown origin)
A549 = test: Antiproliferative activity against human A549 cells assessed as cell viability after 72 hrs by MTT assay; type: functional, cell-based; conditions: A549, 72 h

Sequence of Histone deacetylase 2 (Q92769 whole entry): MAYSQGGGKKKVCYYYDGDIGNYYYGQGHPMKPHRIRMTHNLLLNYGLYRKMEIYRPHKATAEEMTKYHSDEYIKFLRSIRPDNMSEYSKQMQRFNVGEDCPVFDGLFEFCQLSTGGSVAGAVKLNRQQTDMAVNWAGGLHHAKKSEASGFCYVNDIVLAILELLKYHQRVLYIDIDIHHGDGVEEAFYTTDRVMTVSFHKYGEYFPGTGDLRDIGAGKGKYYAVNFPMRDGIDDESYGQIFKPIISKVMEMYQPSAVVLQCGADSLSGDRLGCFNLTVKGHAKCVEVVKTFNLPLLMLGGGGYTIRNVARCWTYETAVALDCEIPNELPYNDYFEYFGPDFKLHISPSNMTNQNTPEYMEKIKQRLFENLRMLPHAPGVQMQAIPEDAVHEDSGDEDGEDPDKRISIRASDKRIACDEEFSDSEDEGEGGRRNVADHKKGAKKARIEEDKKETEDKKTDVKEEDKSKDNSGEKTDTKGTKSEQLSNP
Sequence of Histone deacetylase 1 (Q13547 whole entry): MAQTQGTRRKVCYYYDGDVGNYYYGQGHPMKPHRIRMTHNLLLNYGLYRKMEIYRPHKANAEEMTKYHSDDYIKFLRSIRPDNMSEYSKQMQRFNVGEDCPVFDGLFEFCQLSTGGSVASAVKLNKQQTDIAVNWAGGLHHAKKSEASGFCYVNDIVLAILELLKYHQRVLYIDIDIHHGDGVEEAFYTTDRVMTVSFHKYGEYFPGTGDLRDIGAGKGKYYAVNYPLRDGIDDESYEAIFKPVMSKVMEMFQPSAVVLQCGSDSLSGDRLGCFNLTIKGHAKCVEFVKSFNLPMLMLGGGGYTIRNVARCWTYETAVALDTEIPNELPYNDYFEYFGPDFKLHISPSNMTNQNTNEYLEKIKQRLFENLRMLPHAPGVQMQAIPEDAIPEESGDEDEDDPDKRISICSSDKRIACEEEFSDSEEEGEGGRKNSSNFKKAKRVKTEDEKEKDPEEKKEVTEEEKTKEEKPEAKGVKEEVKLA
Sequence of Histone deacetylase 3 (O15379 whole entry): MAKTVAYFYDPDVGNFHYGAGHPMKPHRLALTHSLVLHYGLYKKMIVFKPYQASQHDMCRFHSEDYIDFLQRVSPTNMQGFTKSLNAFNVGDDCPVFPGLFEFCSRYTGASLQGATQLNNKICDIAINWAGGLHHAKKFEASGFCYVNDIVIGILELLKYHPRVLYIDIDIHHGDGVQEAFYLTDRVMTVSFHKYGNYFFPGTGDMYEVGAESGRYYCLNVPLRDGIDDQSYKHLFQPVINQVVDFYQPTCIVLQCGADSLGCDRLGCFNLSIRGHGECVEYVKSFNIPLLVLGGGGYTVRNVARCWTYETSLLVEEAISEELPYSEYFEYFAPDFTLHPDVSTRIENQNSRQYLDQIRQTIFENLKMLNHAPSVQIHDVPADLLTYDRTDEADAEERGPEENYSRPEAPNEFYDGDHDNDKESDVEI
Sequence of DNA topoisomerase 2-alpha (Homo sapiens) (P11388 whole entry): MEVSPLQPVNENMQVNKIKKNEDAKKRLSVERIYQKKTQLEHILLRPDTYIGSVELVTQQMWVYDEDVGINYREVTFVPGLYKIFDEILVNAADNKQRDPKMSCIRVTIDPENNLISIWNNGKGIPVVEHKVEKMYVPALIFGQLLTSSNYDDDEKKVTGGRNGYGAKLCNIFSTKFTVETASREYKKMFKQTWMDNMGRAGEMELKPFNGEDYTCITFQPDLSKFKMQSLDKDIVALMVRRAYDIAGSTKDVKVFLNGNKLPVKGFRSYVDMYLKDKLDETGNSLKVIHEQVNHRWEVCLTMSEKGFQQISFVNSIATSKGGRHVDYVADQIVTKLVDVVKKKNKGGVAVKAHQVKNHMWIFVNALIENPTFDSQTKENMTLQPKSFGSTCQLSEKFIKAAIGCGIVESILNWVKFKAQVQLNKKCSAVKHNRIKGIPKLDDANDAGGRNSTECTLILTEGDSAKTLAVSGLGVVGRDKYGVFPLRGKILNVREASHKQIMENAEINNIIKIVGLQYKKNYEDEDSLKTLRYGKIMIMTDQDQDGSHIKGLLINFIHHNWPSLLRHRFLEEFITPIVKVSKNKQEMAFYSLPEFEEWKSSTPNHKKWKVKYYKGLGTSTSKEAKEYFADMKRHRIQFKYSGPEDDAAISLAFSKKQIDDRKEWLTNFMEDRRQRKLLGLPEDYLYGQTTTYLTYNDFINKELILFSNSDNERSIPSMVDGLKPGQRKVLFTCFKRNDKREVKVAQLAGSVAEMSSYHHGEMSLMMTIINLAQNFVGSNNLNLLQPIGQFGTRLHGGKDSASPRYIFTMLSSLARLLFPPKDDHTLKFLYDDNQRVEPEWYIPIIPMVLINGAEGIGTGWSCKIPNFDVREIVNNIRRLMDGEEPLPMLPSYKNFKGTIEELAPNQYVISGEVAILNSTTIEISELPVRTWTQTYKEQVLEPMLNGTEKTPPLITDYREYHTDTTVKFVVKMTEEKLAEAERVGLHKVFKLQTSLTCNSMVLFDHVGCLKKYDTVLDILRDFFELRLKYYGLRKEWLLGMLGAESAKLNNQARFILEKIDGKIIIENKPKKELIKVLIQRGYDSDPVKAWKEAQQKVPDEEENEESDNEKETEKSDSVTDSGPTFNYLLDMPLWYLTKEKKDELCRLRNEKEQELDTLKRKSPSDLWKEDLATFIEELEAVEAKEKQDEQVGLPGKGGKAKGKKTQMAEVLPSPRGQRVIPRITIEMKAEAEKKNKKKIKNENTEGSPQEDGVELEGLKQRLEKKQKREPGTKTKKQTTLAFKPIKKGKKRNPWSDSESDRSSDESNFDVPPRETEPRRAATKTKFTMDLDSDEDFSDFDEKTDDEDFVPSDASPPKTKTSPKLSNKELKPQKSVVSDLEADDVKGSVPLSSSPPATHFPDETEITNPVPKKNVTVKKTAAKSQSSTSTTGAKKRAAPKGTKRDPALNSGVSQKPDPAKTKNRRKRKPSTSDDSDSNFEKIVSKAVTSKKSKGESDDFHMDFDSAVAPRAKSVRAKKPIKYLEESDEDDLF

IC50 (HCT-116) | IC50 (Histone deacetylase 1) | IC50 [1] | inhibition [2] | IC50 (Histone deacetylase 3) | IC50 (Histone deacetylase 2) | IC50 (A549) | Structure (SMILES)
5030 nM | 29 nM | 16 nM | Active | 49 nM |  |  | COc1cc([C@@H]2c3cc4c(cc3[C@@H](Nc3ccc(OCCCCCCC(=O)NO)cc3)[C@H]3COC(=O)[C@H]23)OCO4)cc(OC)c1O
5720 nM | 45 nM | 15 nM |  | 81 nM |  |  | COc1cc([C@@H]2c3cc4c(cc3[C@@H](Nc3cccc(OCCCCCC(=O)NO)c3)[C@H]3COC(=O)[C@H]23)OCO4)cc(OC)c1O
11400 nM | 175 nM | 217 nM |  | 217 nM |  |  | COc1cc([C@@H]2c3cc4c(cc3[C@@H](Nc3ccccc3OCCCCCCCC(=O)NO)[C@H]3COC(=O)[C@H]23)OCO4)cc(OC)c1O
3720 nM | 87 nM | 53 nM |  | 53 nM |  |  | COc1cc([C@@H]2c3cc4c(cc3[C@@H](Nc3ccc(OCCCCCCCC(=O)NO)cc3)[C@H]3COC(=O)[C@H]23)OCO4)cc(OC)c1O
3330 nM | 11 nM | 5.6 nM | Active | 9.6 nM |  |  | COc1cc([C@@H]2c3cc4c(cc3[C@@H](Nc3cccc(OCCCCCCC(=O)NO)c3)[C@H]3COC(=O)[C@H]23)OCO4)cc(OC)c1O
4920 nM | 207 nM | 26 nM |  | 69 nM |  |  | COc1cc([C@@H]2c3cc4c(cc3[C@@H](Nc3ccc(OCCCCCC(=O)NO)cc3)[C@H]3COC(=O)[C@H]23)OCO4)cc(OC)c1O
920 nM |  |  |  |  | 53500 nM | 1110 nM | COc1cc([C@@H]2c3cc4c(cc3[C@@H](Nc3cccc(OCCCCCCC(=O)Nc5ccccc5N)c3)[C@H]3COC(=O)[C@H]23)OCO4)cc(OC)c1O
16500 nM | 369 nM | 84 nM |  | 899 nM |  |  | COc1cc([C@@H]2c3cc4c(cc3[C@@H](Nc3ccccc3OCCCCC(=O)NO)[C@H]3COC(=O)[C@H]23)OCO4)cc(OC)c1O
8100 nM | 145 nM | 20 nM |  | 188 nM |  |  | COc1cc([C@@H]2c3cc4c(cc3[C@@H](Nc3ccccc3OCCCCCC(=O)NO)[C@H]3COC(=O)[C@H]23)OCO4)cc(OC)c1O
11300 nM | 72 nM | 27 nM | Active | 155 nM |  |  | COc1cc([C@@H]2c3cc4c(cc3[C@@H](Nc3ccccc3OCCCCCCC(=O)NO)[C@H]3COC(=O)[C@H]23)OCO4)cc(OC)c1O
5260 nM | 125 nM | 88 nM |  | 242 nM |  |  | COc1cc([C@@H]2c3cc4c(cc3[C@@H](Nc3ccc(OCCCCC(=O)NO)cc3)[C@H]3COC(=O)[C@H]23)OCO4)cc(OC)c1O
5370 nM | 243 nM | 214 nM |  | 193 nM |  |  | COc1cc([C@@H]2c3cc4c(cc3[C@@H](Nc3ccc(OCCCC(=O)NO)cc3)[C@H]3COC(=O)[C@H]23)OCO4)cc(OC)c1O
5190 nM | 39 nM | 69 nM |  | 69 nM |  |  | COc1cc([C@@H]2c3cc4c(cc3[C@@H](Nc3cccc(OCCCCCCCC(=O)NO)c3)[C@H]3COC(=O)[C@H]23)OCO4)cc(OC)c1O
520 nM | 14100 nM |  | Active | 11600 nM | 10400 nM | 1160 nM | COc1cc([C@@H]2c3cc4c(cc3[C@@H](Nc3ccc(OCCCCCCC(=O)Nc5ccccc5N)cc3)[C@H]3COC(=O)[C@H]23)OCO4)cc(OC)c1O

More lines, now with the values behind:

Structure (SMILES) | IC50 (HCT-116) | IC50 (Histone deacetylase 1) | IC50 [1] | inhibition [2] | IC50 (Histone deacetylase 3) | IC50 (Histone deacetylase 2) | IC50 (A549)
COc1cc([C@@H]2c3cc4c(cc3[C@@H](Nc3cccc(OCCCCC(=O)NO)c3)[C@H]3COC(=O)[C@H]23)OCO4)cc(OC)c1O | 6290 nM | 93 nM | 42 nM |  | 111 nM |  | 
Nc1ccccc1NC(=O)c1ccc(CNc2nccc(-c3cccnc3)n2)cc1 [MOCETINOSTAT] | 1570 nM |  |  | inactive |  |  | 
COc1cc([C@@H]2c3cc4c(cc3[C@@H](O[C@@H]3O[C@@H]5CO[C@@H](C)O[C@H]5[C@H](O)[C@H]3O)[C@H]3COC(=O)[C@H]23)OCO4)cc(OC)c1O [ETOPOSIDE] | 870 nM | > 34000 nM |  | Active |  |  | 
COc1cc([C@@H]2c3cc4c(cc3[C@@H](Nc3cccc(NC(=O)CCCCC(=O)NO)c3)[C@H]3COC(=O)[C@H]23)OCO4)cc(OC)c1O | 14100 nM | 1430 nM | 520 nM |  | 2110 nM |  | 
O=C(CCCCCCC(=O)Nc1ccccc1)NO |  |  |  | inactive |  |  | 
COc1cc([C@@H]2c3cc4c(cc3[C@@H](Nc3ccc(NC(=O)CCCCC(=O)NO)cc3)[C@H]3COC(=O)[C@H]23)OCO4)cc(OC)c1O | 3760 nM | 2830 nM | 1060 nM |  | 1690 nM |  | 
COc1cc([C@@H]2c3cc4c(cc3[C@@H](Nc3cccc(OCCCC(=O)NO)c3)[C@H]3COC(=O)[C@H]23)OCO4)cc(OC)c1O | 29400 nM | 385 nM | 405 nM |  | 767 nM |  | 
COc1cc([C@@H]2c3cc4c(cc3[C@@H](Nc3ccc(NC(=O)CCCCCCC(=O)NO)cc3)[C@H]3COC(=O)[C@H]23)OCO4)cc(OC)c1O | 1270 nM | 210 nM | 90 nM | Active | 230 nM | 140 nM | 18600 nM
COc1cc([C@@H]2c3cc4c(cc3[C@@H](Nc3cccc(NC(=O)CCCCCC(=O)NO)c3)[C@H]3COC(=O)[C@H]23)OCO4)cc(OC)c1O | 19600 nM | 380 nM | 160 nM |  | 590 nM |  | 
COc1cc([C@@H]2c3cc4c(cc3[C@@H](Nc3cccc(NC(=O)CCCCCCC(=O)NO)c3)[C@H]3COC(=O)[C@H]23)OCO4)cc(OC)c1O | 8570 nM | 100 nM | 40 nM | Active | 130 nM |  | 
COc1cc([C@@H]2c3cc4c(cc3[C@@H](Nc3ccc(NC(=O)CCCCCC(=O)NO)cc3)[C@H]3COC(=O)[C@H]23)OCO4)cc(OC)c1O | 2940 nM | 590 nM | 130 nM |  | 520 nM |  | 
COc1cc([C@@H]2c3cc4c(cc3[C@@H](Nc3ccccc3OCCCC(=O)NO)[C@H]3COC(=O)[C@H]23)OCO4)cc(OC)c1O | 28900 nM | 578 nM | 357 nM |  | 1440 nM |  | 
